Measured values taken from patent US20190010167A1, “INHIBITORS OF THE MENIN-MLL INTERACTION” (Vitae Pharmaceuticals, Inc., priority 2015, published 2019).
Structures can show the parent of a compound that is named as a salt.

What was measured:
[1] = biological target: T1, mutated menin / MLL-AF9 fusion protein (Homo sapiens, UniProt O00255); assay: AlphaLISA menin/MLL binding assay, mutated menin (Assay 1); settings: biotinylated mutated menin 5 nM, MLL-AF9-FLAG lysate, read-out: Assay 1 Mutant Menin IC50
T1 construct: biotinylated (1) wild-type menin or (2) mutated menin (described in Nature (2012) Vol. 482, pp. 542-548); fused on or other part: Biotin attached chemically with Sulfo-NHS-Biotin; This is a label, not a fusion
T1 sequence (O00255 1-610): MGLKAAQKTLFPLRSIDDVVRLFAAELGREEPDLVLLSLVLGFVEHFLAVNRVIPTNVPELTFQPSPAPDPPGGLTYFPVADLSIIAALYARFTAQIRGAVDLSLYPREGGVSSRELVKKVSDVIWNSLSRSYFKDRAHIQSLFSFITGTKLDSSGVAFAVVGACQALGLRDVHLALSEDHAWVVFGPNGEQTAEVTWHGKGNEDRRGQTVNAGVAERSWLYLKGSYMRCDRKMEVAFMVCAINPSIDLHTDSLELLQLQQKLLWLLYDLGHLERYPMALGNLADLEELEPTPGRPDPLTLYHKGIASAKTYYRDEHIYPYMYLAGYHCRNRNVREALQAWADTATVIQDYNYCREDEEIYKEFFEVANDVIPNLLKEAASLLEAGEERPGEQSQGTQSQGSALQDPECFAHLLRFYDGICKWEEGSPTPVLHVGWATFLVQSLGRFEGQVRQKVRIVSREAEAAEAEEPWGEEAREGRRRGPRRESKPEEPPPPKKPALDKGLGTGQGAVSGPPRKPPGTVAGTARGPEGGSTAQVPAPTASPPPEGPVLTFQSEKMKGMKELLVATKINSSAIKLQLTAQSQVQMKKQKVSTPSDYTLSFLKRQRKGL
Protocol: Potencies of inhibitor compounds against menin/MLL binding were assessed by AlphaLISA assay using biotinylated (1) wild-type menin or (2) mutated menin (described in Nature (2012) Vol. 482, pp. 542-548) and MLL-AF9 fusion protein bearing a FLAG epitope at its C-terminus. Menin proteins were expressed in E. coli and covalently modified with biotin using EZ-Link™ Sulfo-NHS-Biotin (ThermoFisher Cat. No. 21217) according to manufacturer's protocol. MLL1-1,396 fused to AF91-92 and the C-terminal FLAG peptide was expressed in HEK293 cells and used as a lysate cleared at 21,000×g for 10 min.
Compounds (2 μL of solutions in DMSO) were dispensed in white 96-well half-area plates (Corning Cat. No. 3693) and incubated for 30 min at RT with 5 nM biotinylated menin and appropriate amount of MLL-AF9-FLAG lysate in 40 μL of 50 mM Tris-HCl buffer pH 7.4 containing 5% (v/v) DMSO, 50 mM NaCl, 0.01% (w/v) bovine serum albumin (BSA) and 1 mM DTT. To this incubation mixture, 40 μl of AlphaLISA anti-FLAG acceptor (PerkinElmer Cat. No. AL112C) and streptavidin donor (PerkinElmer Cat. No. 6760002) beads (10 μg/mL each) was added and incubation continued at RT for 60 min. Alpha (amplified luminescent proximity homogeneous assay) signal was measured on an Envision multi-label plate reader at the end of the incubation. All steps were conducted under dim fluorescent light.
These percent inhibition values were regressed against compound concentrations in the assay using four parameter logit non-linear curve fitting (XLFit, IDBS). The IC50 values were derived from the curve fitting as inflection points on the dose-response curves and are set out in Table 1 below.

[2] = biological target: T2, menin/MLL (Gal4-Menin and MLL1-46-VP16) in HEK293 cells (Homo sapiens, UniProt O00255); assay: Mammalian cellular two-hybrid assay in HEK293 cells (Assay 2, cell assay); format: cell-based; settings: Gal4-Menin/MLL1-46-VP16 two-hybrid, NanoLuc luciferase reporter, 16-18 h
T2 construct: expressed in transfected cells; host or cells: HEK293 (ATCC)
Protocol: Potencies of inhibitor compounds against menin/MLL were tested in a mammalian cellular two-hybrid assay system. HEK293 cells (American Type Culture Collection (ATCC); Manassas, Va.) were co-transfected with three plasmids: one encoding Gal4-Menin (200 ng per 10^6 cells), another encoding MLL1-46-VP16 (100 ng per 10^6 cells), and a reporter plasmid pNL3.3-4×UAS (500 ng per 10^6 cells) encoding secreted NanoLuc® luciferase (Promega) with the upstream 4×UAS repeats for Gal4 binding. Transfection was performed in Opti-MEM® media using Lipofectamine® LTX with Plus™ Reagent (ThermoFisher Scientific) according to manufacturer's protocol. Cells were incubated with transfection reagents at 37° C. 5% CO2 for 5-6 h, harvested by trypsinization and centrifugation at 300×g for 5 min and resuspended in Gibco® DMEM media (phenol red-free, no antibiotics) containing 10% delipidated fetal bovine serum (FBS) (ThermoFisher Scientific). Concentration of cells in the media was adjusted to 3.5×10^5 cells/ml, and 100 μl of the cell suspension was dispensed into each well of 96-well Costar™ black clear bottom cell culture plates (Fisher Scientific). Tested compounds were added as 100 μL of 2× solutions in the media. Final concentration of DMSO was 0.1% in all wells. The cells were incubated with tested compounds at 37° C. 5% CO2 for 16-18 h. At the end of the incubation, 40 μL of the conditioned media from each well was transferred into each well of 96-well Costar™ black half-area plates (Fisher Scientific), to which 40 μl of 2× reconstituted NanoGlo® luciferase assay reagent (Promega) was added and thoroughly mixed on a microshaker for 2-3 min. Remaining media in the culture plates was removed by emptying the wells and blotting the plates on filter paper. The cells were lysed with 1× CellTiter-Glo® Luminescent Cell Viability Assay reagent (Promega) for assessing toxicity of the tested compounds. Both, Nano-Glo® and CellTiter-Glo® luminescence intensities were measured on EnVision® multilabel plate reader (PerkinElmer). Percent inhibition values were calculated based on Nano-Glo® luciferase activity observed with the tested compounds vs. DMSO control and commercially available menin inhibitor MI-2-2 (4-(4-(5,5-Dimethyl-4,5-dihydrothiazol-2-yl)piperazin-1-yl)-6-(2,2,2-trifluoroethyl)thieno[2,3-d]pyrimidine) (EMD Millipore, Cat. No. 444825) incubated with cells at 5 μM. These percent inhibition values were regressed against compound concentrations in the assay using non-linear 4-parameter logit curve fitting (XLFit, IDBS). Half maximal inhibitory concentrations (IC50) were calculated as the parameters of the fit corresponding to the inflection points on semi-logarithmic dose-response curves.

[3] = biological target: T3, wild-type menin / MLL-AF9 fusion protein (Homo sapiens, UniProt O00255); assay: AlphaLISA menin/MLL binding assay, wild-type menin (Assay 1); settings: biotinylated wild-type menin 5 nM, MLL-AF9-FLAG lysate
T3 construct: made in house; host or cells: E. coli (menin); HEK293 cleared lysate (MLL-AF9-FLAG)
T3 sequence (O00255 1-610): T1 sequence (O00255 1-610)
Procedure, shortened: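 Biotinylated wild-type or mutated menin (5 nM, E. coli-expressed) was preincubated 30 min at RT with compound and HEK293 lysate containing MLL1-1,396–AF9 1-92–FLAG. Buffer was 50 mM Tris-HCl pH 7.4, 5% DMSO, 50 mM NaCl, 0.01% BSA, 1 mM DTT. Anti-FLAG acceptor and streptavidin donor beads (10 μg/mL each) were then added for 60 min. IC50 came from a four-parameter fit of the Alpha signal inhibition.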

T2 sequence (P04386 1-147 partner limits assumed, species assumed, one chain of several): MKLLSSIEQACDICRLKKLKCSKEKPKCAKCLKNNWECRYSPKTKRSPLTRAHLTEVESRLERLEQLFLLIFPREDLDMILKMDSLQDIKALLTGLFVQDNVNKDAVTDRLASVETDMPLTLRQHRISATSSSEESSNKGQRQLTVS

Structure (SMILES) | IC50 [1] | IC50 [2] | IC50 [3]
CC(C)N1CCC2(CCN(c3ncnc4sc(CC(F)(F)F)cc34)CC2)C1 [Example 25, 4-(2-isopropyl-2,8-diazaspiro[4.5]decan-8-yl)-6-(2,2,2-trifluoroethyl)thieno[2,3-d]pyrimidine] | 100 to 1000 nM | ≥ 1000 nM | 
Cc1c(CN2CCC3(CCN(c4ncnc5sc(CC(F)(F)F)cc45)C3)C2)ccc2[nH]c(C#N)cc12 (single isomer, unassigned) [Example 30a, 4-methyl-5-((7-(6-(2,2,2-trifluoroethyl)thieno[2,3-d]pyrimidin-4-yl)-2,7-diazaspiro[4.4]nonan-2-yl)methyl)-1H-indole-2-carbonitrile] |  | < 100 nM | < 100 nM
CC1(C)CN=C(N2CCC3(CCN(c4ncnc5sc(CC(F)(F)F)cc45)CC3)C2)S1 [Example 27, 4-(2-(5,5-dimethyl-4,5-dihydrothiazol-2-yl)-2,8-diazaspiro[4.5]decan-8-yl)-6-(2,2,2-trifluoroethyl)thieno[2,3-d]pyrimidine] | 100 to 1000 nM |  | 
FC(F)(F)Cc1cc2c(N3CC4(CN(CC5CCCCC5)C4)C3)ncnc2s1 [Example 69, 4-(6-(cyclohexylmethyl)-2,6-diazaspiro[3.3]heptan-2-yl)-6-(2,2,2-trifluoroethyl)thieno[2,3-d]pyrimidine] |  | 100 to 1000 nM | < 100 nM
FC(F)(F)Cc1cc2c(N3CC4(CCN(CC5CCOCC5)CC4)C3)ncnc2s1 [Example 99, 4-(7-((tetrahydro-2H-pyran-4-yl)methyl)-2,7-diazaspiro[3.5]nonan-2-yl)-6-(2,2,2-trifluoroethyl)thieno[2,3-d]pyrimidine] |  | ≥ 1000 nM | 100 to 1000 nM
CS(=O)(=O)Nc1ccc(CN2CCC3(CCN(c4ncnc5sc(CC(F)(F)F)cc45)C3)C2)cc1 (stereo not drawn) [Example 38, N-(4-((7-(6-(2,2,2-trifluoroethyl)thieno[2,3-d]pyrimidin-4-yl)-2,7-diazaspiro[4.4]nonan-2-yl)methyl)phenyl)methanesulfonamide] |  | 100 to 1000 nM | < 100 nM
FC(F)(F)Cc1cc2c(N3CCC4(CCN(Cc5ccccc5)C4)C3)ncnc2s1 (stereo not drawn) [Example 43, 4-(7-benzyl-2,7-diazaspiro[4.4]nonan-2-yl)-6-(2,2,2-trifluoroethyl)thieno[2,3-d]pyrimidine] |  | 100 to 1000 nM | < 100 nM

Other lines, results leading:

IC50 [1] | IC50 [2] | IC50 [3] | Structure (SMILES)
100 to 1000 nM |  |  | CC1(C)CN=C(N2CC3(CCN(c4ncnc5sc(CC(F)(F)F)cc45)CC3)C2)S1 [Example 10, 4-(2-(5,5-dimethyl-4,5-dihydrothiazol-2-yl)-2,7-diazaspiro[3.5]nonan-7-yl)-6-(2,2,2-trifluoroethyl)thieno[2,3-d]pyrimidine]
≥ 1000 nM |  |  | CC1(C)CN=C(N2CC3(C2)CN(c2ncnc4ccc(OC(F)(F)F)cc24)C3)S1 [Example 88, 5,5-dimethyl-2-(6-(6-(trifluoromethoxy)quinazolin-4-yl)-2,6-diazaspiro[3.3]heptan-2-yl)-4,5-dihydrothiazole]
 | 100 to 1000 nM | < 100 nM | CC(=O)Nc1cccc(CN2CCC3(CCN(c4ncnc5sc(CC(F)(F)F)cc45)C3)C2)c1 (stereo not drawn) [Example 52, N-(3-((7-(6-(2,2,2-trifluoroethyl)thieno[2,3-d]pyrimidin-4-yl)-2,7-diazaspiro[4.4]nonan-2-yl)methyl)phenyl)acetamide]
 | 100 to 1000 nM | < 100 nM | CS(=O)(=O)Nc1ccc(CN2CCC3(CC2)CN(c2ncnc4sc(CC(F)(F)F)cc24)C3)cc1 [Example 97, N-(4-((2-(6-(2,2,2-trifluoroethyl)thieno[2,3-d]pyrimidin-4-yl)-2,7-diazaspiro[3.5]nonan-7-yl)methyl)phenyl)methanesulfonamide]
 | < 100 nM | < 100 nM | Cc1c(CN2CCC3(CCN(c4ncnc5sc(CC(F)(F)F)cc45)C3)C2)ccc2[nH]c(C#N)cc12 (racemic) [Example 30, 4-methyl-5-((7-(6-(2,2,2-trifluoroethyl)thieno[2,3-d]pyrimidin-4-yl)-2,7-diazaspiro[4.4]nonan-2-yl)methyl)-1H-indole-2-carbonitrile]
 | 100 to 1000 nM | < 100 nM | OC1CCC(CN2CC3(C2)CN(c2ncnc4sc(CC(F)(F)F)cc24)C3)CC1 (stereo not drawn) [Example 76, 4-((6-(6-(2,2,2-trifluoroethyl)thieno[2,3-d]pyrimidin-4-yl)-2,6-diazaspiro[3.3]heptan-2-yl)methyl)cyclohexan-1-ol]
 | 100 to 1000 nM | < 100 nM | O=c1[nH]c2cc(CN3CCC4(CCN(c5ncnc6cc(CC(F)(F)F)sc56)C4)C3)ccc2n1CCO (stereo not drawn) [Example 119, 1-(2-hydroxyethyl)-5-((7-(6-(2,2,2-trifluoroethyl)thieno[3,2-d]pyrimidin-4-yl)-2,7-diazaspiro[4.4]nonan-2-yl)methyl)-1H-benzo[d]imidazol-2(3H)-one]
 | < 100 nM | < 100 nM | Cc1c(CN2CCC3(CC2)CN(c2ncnc4sc(CC(F)(F)F)cc24)C3)ccc2[nH]c(C#N)cc12 [Example 96, 4-methyl-5-((2-(6-(2,2,2-trifluoroethyl)thieno[2,3-d]pyrimidin-4-yl)-2,7-diazaspiro[3.5]nonan-7-yl)methyl)-1H-indole-2-carbonitrile hydrochloride]
